Data: patent US8697739B2, “Bicyclic acetyl-CoA carboxylase inhibitors and uses thereof” (Novartis AG, priority 2010, dated 2014)
pIC50: −log10 of the molar value.

Molecular target: T1, human acetyl-CoA carboxylase 2 (ACC2) (Homo sapiens, UniProt O00763)
T1 construct: The cDNA encoding amino acids 144 to 2458 of human acetyl-CoA carboxylase 2; made in house; host or cells: Sf9 insect cells (baculovirus, pFastBac1)
Experiment: Acetyl-CoA carboxylase enzyme assay (malonyl-CoA formation by LC/MS/MS)
Type: biochemical
Conditions: recombinant human ACC2 (aa 144-2458); read-out: IC50 ACC2
In short: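 Malonyl-CoA formation was read by LC/MS/MS MRM against a [13C3]-malonyl-CoA internal standard, after acetic acid quench. The enzyme was baculovirus/Sf9-expressed human ACC2 residues 144–2458, given 15 minutes room-temperature compound preincubation in HEPES pH 7.5 buffer with MgCl2, citrate and DTT. Substrate solution held 50 μM acetyl-CoA, 120 μM ATP and 2 mM KHCO3.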

T1 sequence (O00763 144-2458): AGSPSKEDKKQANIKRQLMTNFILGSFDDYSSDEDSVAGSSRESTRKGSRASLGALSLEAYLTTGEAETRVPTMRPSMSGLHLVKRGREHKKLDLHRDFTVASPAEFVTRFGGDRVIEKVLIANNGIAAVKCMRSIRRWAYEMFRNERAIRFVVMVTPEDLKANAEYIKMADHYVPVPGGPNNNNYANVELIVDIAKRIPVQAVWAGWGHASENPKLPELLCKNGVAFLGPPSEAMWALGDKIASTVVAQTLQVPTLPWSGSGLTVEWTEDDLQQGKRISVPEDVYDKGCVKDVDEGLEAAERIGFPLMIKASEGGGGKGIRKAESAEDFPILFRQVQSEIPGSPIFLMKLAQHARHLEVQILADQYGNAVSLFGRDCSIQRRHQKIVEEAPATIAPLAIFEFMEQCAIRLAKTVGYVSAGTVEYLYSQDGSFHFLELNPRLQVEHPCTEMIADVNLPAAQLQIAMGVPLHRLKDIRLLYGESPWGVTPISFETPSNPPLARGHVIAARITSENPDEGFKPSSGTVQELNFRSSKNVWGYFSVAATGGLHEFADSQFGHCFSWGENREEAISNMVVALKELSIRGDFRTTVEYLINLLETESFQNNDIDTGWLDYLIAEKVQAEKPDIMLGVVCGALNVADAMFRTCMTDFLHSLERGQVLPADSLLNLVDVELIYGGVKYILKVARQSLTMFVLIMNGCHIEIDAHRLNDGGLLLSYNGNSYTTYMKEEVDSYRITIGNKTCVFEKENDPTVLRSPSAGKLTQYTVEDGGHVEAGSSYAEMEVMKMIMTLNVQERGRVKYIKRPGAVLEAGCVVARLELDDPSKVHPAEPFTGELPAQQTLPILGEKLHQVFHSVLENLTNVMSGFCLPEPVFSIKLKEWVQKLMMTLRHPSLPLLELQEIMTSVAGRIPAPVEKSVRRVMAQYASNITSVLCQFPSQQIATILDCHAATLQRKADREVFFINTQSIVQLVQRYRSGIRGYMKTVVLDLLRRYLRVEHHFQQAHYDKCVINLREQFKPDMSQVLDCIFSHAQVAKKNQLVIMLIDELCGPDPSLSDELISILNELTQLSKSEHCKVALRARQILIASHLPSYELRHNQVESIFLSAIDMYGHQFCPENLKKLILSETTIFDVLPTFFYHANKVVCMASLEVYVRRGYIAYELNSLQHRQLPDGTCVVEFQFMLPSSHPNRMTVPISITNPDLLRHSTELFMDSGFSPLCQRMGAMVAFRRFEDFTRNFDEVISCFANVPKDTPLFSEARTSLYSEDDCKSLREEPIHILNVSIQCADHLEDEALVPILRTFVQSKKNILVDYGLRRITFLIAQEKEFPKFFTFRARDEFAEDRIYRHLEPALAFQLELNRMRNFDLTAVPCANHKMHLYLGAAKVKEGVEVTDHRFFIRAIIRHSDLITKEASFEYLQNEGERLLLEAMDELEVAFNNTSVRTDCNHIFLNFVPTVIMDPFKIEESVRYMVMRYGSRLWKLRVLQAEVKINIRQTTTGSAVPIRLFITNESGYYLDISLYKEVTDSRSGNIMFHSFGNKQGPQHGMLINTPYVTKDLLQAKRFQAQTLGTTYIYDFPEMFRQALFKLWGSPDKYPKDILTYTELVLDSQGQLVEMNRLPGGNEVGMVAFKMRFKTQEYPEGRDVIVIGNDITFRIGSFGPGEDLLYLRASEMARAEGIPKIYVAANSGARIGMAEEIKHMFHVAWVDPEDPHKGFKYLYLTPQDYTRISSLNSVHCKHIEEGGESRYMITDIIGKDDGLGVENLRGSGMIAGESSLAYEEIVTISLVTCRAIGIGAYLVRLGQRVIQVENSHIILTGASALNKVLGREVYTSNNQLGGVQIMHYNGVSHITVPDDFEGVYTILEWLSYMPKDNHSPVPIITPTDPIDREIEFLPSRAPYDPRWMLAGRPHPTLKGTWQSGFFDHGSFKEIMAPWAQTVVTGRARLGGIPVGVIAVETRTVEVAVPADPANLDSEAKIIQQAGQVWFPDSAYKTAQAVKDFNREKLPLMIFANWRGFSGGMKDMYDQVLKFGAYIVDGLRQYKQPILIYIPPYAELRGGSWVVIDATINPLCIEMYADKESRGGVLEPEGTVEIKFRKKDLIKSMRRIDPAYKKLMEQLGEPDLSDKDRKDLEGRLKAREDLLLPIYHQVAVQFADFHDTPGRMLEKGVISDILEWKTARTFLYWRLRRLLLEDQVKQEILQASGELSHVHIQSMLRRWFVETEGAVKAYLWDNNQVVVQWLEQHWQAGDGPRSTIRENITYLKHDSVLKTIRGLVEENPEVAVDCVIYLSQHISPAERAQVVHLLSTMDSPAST

| Structure (SMILES) | pIC50 |
| --- | --- |
| CC(C)N1CCNc2ncc(S(=O)(=O)N[C@H]3CC[C@H](C(=O)N[C@H](C)c4ccc(F)cc4)CC3)cc21 [Example 141, (1r,4R)-N-((R)-1-(4-fluorophenyl)ethyl)-4-(1-isopropyl-1,2,3,4-tetrahydropyrido[3,2-b]pyrazine-7-sulfonamido)cyclohexanecarboxamide] | 6.24 |
| C[C@@H](NC(=O)[C@H]1CC[C@H](NS(=O)(=O)c2cnc3c(c2)NCCN3C)CC1)c1ccc(F)cc1 [Example 142, (1r,4R)-N-((R)-1-(4-fluorophenyl)ethyl)-4-(4-methyl-1,2,3,4-tetrahydropyrido[3,2-b]pyrazine-7-sulfonamido)cyclohexanecarboxamide] | 7.17 |
| CC(C)N1CCN(C(C)C)c2ncc(S(=O)(=O)N[C@H]3CC[C@H](C(=O)N[C@H](C)c4ccc(F)cc4)CC3)cc21 [Example 143, (1r,4R)-4-(1,4-diisopropyl-1,2,3,4-tetrahydropyrido[3,2-b]pyrazine-7-sulfonamido)-N-((R)-1-(4-fluorophenyl)ethyl)cyclohexanecarboxamide] | 6.49 |
| C[C@@H](NC(=O)[C@H]1CC[C@H](NS(=O)(=O)c2ccc3c(c2)CCC(C)(C)O3)CC1)c1ccc(F)cc1 [Example 144, (1r,4R)-4-(2,2-dimethylchroman-6-sulfonamido)-N-((R)-1-(4-fluorophenyl)ethyl)cyclohexanecarboxamide] | 6.50 |
| C[C@@H](NC(=O)[C@H]1CC[C@H](NS(=O)(=O)c2cnc3c(c2)CCCN3C)CC1)c1ccc(F)cc1 [Example 145, (1r,4R)-N-((R)-1-(4-fluorophenyl)ethyl)-4-(8-methyl-5,6,7,8-tetrahydro-1,8-naphthyridine-3-sulfonamido)cyclohexanecarboxamide] | 6.89 |
| C[C@H]1CCCN1C(=O)[C@H]1CC[C@H](NS(=O)(=O)c2ccc3ccccc3c2)CC1 [Example 146, N-((1S,4r)-4-((S)-2-methylpyrrolidine-1-carbonyl)cyclohexyl)naphthalene-2-sulfonamide] | 6.02 |
| C[C@@H](NC(=O)[C@H]1CC[C@@H](NS(=O)(=O)c2ccc3ccccc3c2)CC1)c1ccc(F)cc1 [Example 147, (1s,4S)-N-((R)-1-(4-fluorophenyl)ethyl)-4-(naphthalene-2-sulfonamido)cyclohexanecarboxamide] | < 4.46 |
| C[C@@H](NC(=O)[C@H]1CC[C@H](NS(=O)(=O)c2ccc3c(c2)N(C)CCC3)CC1)c1ccc(F)cc1 [Example 148, (1r,4R)-N-((R)-1-(4-fluorophenyl)ethyl)-4-(1-methyl-1,2,3,4-tetrahydroquinoline-7-sulfonamido)cyclohexanecarboxamide] | 8.00 |
| C[C@@H](NC(=O)[C@H]1CC[C@H](NS(=O)(=O)c2ccc3c(c2)NCCN3)CC1)c1ccc(F)cc1 [Example 149, (1r,4R)-N-((R)-1-(4-fluorophenyl)ethyl)-4-(1,2,3,4-tetrahydroquinoxaline-6-sulfonamido)cyclohexanecarboxamide] | 6.54 |
| C[C@@H](NC(=O)[C@H]1CC[C@H](NS(=O)(=O)c2ccc3c(c2)NCCO3)CC1)c1ccc(F)cc1 [Example 150, (1r,4R)-4-(3,4-dihydro-2H-benzo[b][1,4]oxazine-6-sulfonamido)-N-((R)-1-(4-fluorophenyl)ethyl)cyclohexanecarboxamide] | 6.98 |
| C[C@@H](NC(=O)[C@H]1CC[C@H](NS(=O)(=O)c2ccc3c(c2)NCCC3)CC1)c1ccc(F)cc1 [Example 151, (1r,4R)-N-((R)-1-(4-fluorophenyl)ethyl)-4-(1,2,3,4-tetrahydroquinoline-7-sulfonamido)cyclohexanecarboxamide] | 7.33 |
| C[C@@H](NC(=O)[C@H]1CC[C@H](NS(=O)(=O)c2ccc3c(c2)CCCN3)CC1)c1ccc(F)cc1 [Example 152, (1r,4R)-N-((R)-1-(4-fluorophenyl)ethyl)-4-(1,2,3,4-tetrahydroquinoline-6-sulfonamido)cyclohexanecarboxamide] | 7.22 |
| C[C@@H](NC(=O)[C@H]1CC[C@H](NS(=O)(=O)c2cnc3c(c2)NCC(C)(C)CN3)CC1)c1ccc(F)cc1 [Example 153, (1r,4R)-4-(3,3-dimethyl-2,3,4,5-tetrahydro-1H-pyrido[2,3-b][1,4]diazepine-8-sulfonamido)-N-((R)-1-(4-fluorophenyl)ethyl)cyclohexanecarboxamide] | 6.36 |
| C[C@@H](NC(=O)[C@H]1CC[C@@H](NS(=O)(=O)c2cnc3c(c2)NCC(C)(C)CN3)CC1)c1ccc(F)cc1 [Example 154, (1s,4S)-4-(3,3-dimethyl-2,3,4,5-tetrahydro-1H-pyrido[2,3-b][1,4]diazepine-8-sulfonamido)-N-((R)-1-(4-fluorophenyl)ethyl)cyclohexanecarboxamide] | 5.70 |
| [2H]C([2H])([2H])N1C(=O)COc2ccc(S(=O)(=O)N[C@H]3CC[C@H](C(=O)N[C@H](C)c4ccc(F)cc4)CC3)cc21 [Example 155, (1r,4R)-N-((R)-1-(4-fluorophenyl)ethyl)-4-(3-oxo-4-(trideuteriomethyl)-3,4-dihydro-2H-benzo[b][1,4]oxazine-6-sulfonamido)cyclohexanecarboxamide] | 6.76 |
| C[C@@H](NC(=O)[C@H]1CC[C@H](NS(=O)(=O)c2ccc3c(c2)N(C)C(=O)CO3)CC1)c1ccc(F)cc1 [Example 156, (1r,4R)-N-((R)-1-(4-fluorophenyl)ethyl)-4-(4-methyl-3-oxo-3,4-dihydro-2H-benzo[b][1,4]oxazine-6-sulfonamido)cyclohexanecarboxamide] | 6.74 |
| C[C@@H](NC(=O)[C@H]1CC[C@H](NS(=O)(=O)c2ccc3c(c2)N(C)CCO3)CC1)c1ccc(F)cc1 [Example 157, (1r,4R)-N-((R)-1-(4-fluorophenyl)ethyl)-4-(4-methyl-3,4-dihydro-2H-benzo[b][1,4]oxazine-6-sulfonamido)cyclohexanecarboxamide] | 7.42 |
| [2H]C([2H])([2H])N1CCOc2ccc(S(=O)(=O)N[C@H]3CC[C@H](C(=O)N[C@H](C)c4ccc(F)cc4)CC3)cc21 [Example 158, (1r,4R)-N-((R)-1-(4-fluorophenyl)ethyl)-4-(4-(trideuteriomethyl)-3,4-dihydro-2H-benzo[b][1,4]oxazine-6-sulfonamido)cyclohexanecarboxamide] | 7.70 |
| CC(NC(=O)[C@H]1CC[C@H](NS(=O)(=O)c2ccc3c(c2)N(C)CCC3)CC1)c1ccccn1 (stereo partly shown) [Example 159, (1r,4r)-4-(1-methyl-1,2,3,4-tetrahydroquinoline-7-sulfonamido)-N-(1-(pyridin-2-yl)ethyl)cyclohexanecarboxamide] | 6.46 |
| CC(NC(=O)[C@H]1CC[C@H](NS(=O)(=O)c2ccc3c(c2)N(C)CCC3)CC1)c1cccnc1 (stereo partly shown) [Example 160, (1r,4r)-4-(1-methyl-1,2,3,4-tetrahydroquinoline-7-sulfonamido)-N-(1-(pyridin-3-yl)ethyl)cyclohexanecarboxamide] | 7.10 |
| CC(NC(=O)[C@H]1CC[C@H](NS(=O)(=O)c2ccc3c(c2)N(C)CCC3)CC1)c1ccncc1 (stereo partly shown) [Example 161, (1r,4r)-4-(1-methyl-1,2,3,4-tetrahydroquinoline-7-sulfonamido)-N-(1-(pyridin-4-yl)ethyl)cyclohexanecarboxamide] | 6.47 |
| CC(NC(=O)C1CCC(NS(=O)(=O)c2cnc3c(c2)NC2CCCCC2N3)CC1)c1ccc(F)cc1 [Example 162, (1S,4R)-N-((R)-1-(4-fluorophenyl)ethyl)-4-((5aS,9aS)-5,5a,6,7,8,9,9a,10-octahydropyrido[3,2-b]quinoxaline-3-sulfonamido)cyclohexanecarboxamide] | 6.90 |
